Measured values published in patent publication US7910624B1, “Compositions for the treatment of blood disorders” (The Trustees of Boston University, priority 1995, dated 2011).

Columns and labels:
[1] = test system: human erythroid cells; experiment: DNA fragmentation by flow cytometry (propidium iodide); format: cell-based; settings: for effect in DNA fragmentation assays: summary statement
Description: (§1) Such activities might limit their utility for treatment of anemias such as occur in thalassemia, but alternatively would be useful for anticancer effects. To determine cell viability, human erythroid cells were cultured in the presence and absence of these compounds for 4 days and the amount of DNA fragmentation which occurred was measured.
Flow cytometric determination of DNA profiles and DNA fragmentation were determined. Cytometric analysis was performed with a FACScan (Becton Dickenson Instruments; Columbia, Md.). The data analysis and display were performed using the Cell-Fit software program. Approximately 0.5×10^6 cells were washed twice with PBS and resuspended in 1 ml of 1% sodium citrate, 0.1% Triton X-100 and […] of propidium iodide/ml. Resulting permeabilized cells were kept in the dark at 4° C. overnight before DNA profile or DNA fragmentation analysis (Table 4).

[2] = test system: system A transport in K562 cells and nucleated erythroblasts from fetal liver; experiment: System A (neutral amino acid) transport, 3H-MAIB uptake; format: cell-based, human; settings: 1 hour incubation, FIG. 12
Description: Inhibition of nutrient uptake is undesirable for treatment of anemias. Methyl aminoisobutyric acid (MAIB) labeled with tritium (^3H) is normally taken up by system A amino acid transport. Cold (unlabeled) compounds were added to cultures containing ^3H-MAIB and incubated for 1 hour. Cells were harvested and the amount of ^3H taken up by cells was quantitated by scintillation counting.

[3] = test system: Human erythroleukemia cells; experiment: Fetal globin mRNA in erythroleukemia cells by primer extension; format: cell-based; settings: 1.0 mM, 4 days
Description: Compounds were tested for increased expression of the human globin genes in human erythroid cells. In addition, as the cell line being tested is a tumor cell line, the assay determines if differentiation, a growth inhibitory effect on cancer cells, is induced by the compounds tested. Human erythroleukemia cells were cultured in RPMI media with 10% fetal calf serum alone or with treatment with various compounds for 4 days. Globin mRNA was quantitated by primer extension analysis. Fetal globin mRNA was compared to the amount of fetal globin mRNA produced in untreated cells during the same culture period. The quantitation was expressed as a percent of alpha globin mRNA which was constant. Results are expressed proportional to α-globin mRNA (Table 3).

[4] = test system: erythroid cells (peripheral blood cells); experiment: Erythroid cell viability by Calcein-AM fluorescent staining (FIG. 2); format: cell-based
Description: Compositions were tested for the ability to directly stimulate erythroid cell growth. Cell growth stimulation is a useful property for an agent to be used to treat anemias and distinguishes such agents from the cytotoxic drugs currently being tested for treatment of hemoglobinopathies. Cell viability analyses were performed using fluorescent staining to detect living cells. Cells were in log phase of growth in 6-well dishes when used in proliferation assays. For enumeration of living cells, wells were washed once with medium to remove nonadherent or dead cells. Remaining live cells were labeled with 2 μM 2′,7′-bis-(carboxyethyl)-5-(and 6)-carboxy-fluorescein acetoxy-methyl ester (Calcein-AM) (Molecular Probes; Eugene, Oreg.) for 20 minutes at 37° C. and washed once. Fluorescence intensity of live cells was read on a CytoFluor 2300 Fluorescence Plate Scanner (Millipore; Bedford, Mass.) at excitation and emission wavelengths of 485 and 530 nm, respectively. The fluorescence intensity of a well was proportional to the number of living cells in the well. Background fluorescence was measured separately for each plate and subtracted from all readings. Each experiment was performed in triplicate or quadruplicate. The standard deviation (SD) of repetitive readings was less than 30% of the mean. Results are depicted in FIG. 2.

[5] = test system: K562 cells; experiment: Dose response, total and viable cells by trypan blue exclusion (FIG. 3); format: cell-based, human; settings: day 4
Description: FIG. 3 A FIG. 3E Cell viability as determined by the comparative numbers of total and viable K562 cells in the presence of increasing concentrations of (A) phenoxyacetic acid, (B) dihydrocinnamic acid, (C) butyric acid ethyl ester, (D) arginine butyrate, and (E) isobutyramide.
Dose response curves at dosages of up to 2.0 mM were also determined for phenoxyacetic acid (PAA; FIG. 3A), dihydrocinnamic acid (DHC; FIG. 3B), butyric acid ethyl ester (BAEE; FIG. 3C), arginine butyrate (AB; FIG. 3D) and isobutyramide (IBT; FIG. 3E). Cells were counted on day 4 of treatment and viable cells identified by trypan blue exclusion.

[6] = test system: human erythroid cell line K562; experiment: Cell viability / growth of K562 by Calcein-AM fluorescence; format: cell-based; settings: over 3 days
Description: as §1
Cell viability analyses were performed using fluorescent staining to detect living cells. Cells were in log phase of growth in 6-well dishes when used in proliferation assays. For enumeration of living cells, wells were washed once with medium to remove nonadherent or dead cells. Remaining live cells were labeled with Calcein-AM for 20 minutes at 37° C. and washed once. Fluorescence intensity of adherent live cells was read on a CytoFluor 2300 Fluorescence Plate Scanner (Millipore; Bedford, Mass.) at excitation and emission wavelengths of 485 and 530 nm, respectively. The fluorescence intensity of a well was proportional to the number of living cells in the well. Background fluorescence was measured separately for each plate and subtracted from all readings. Each experiment was performed in triplicate or quadruplicate. The standard deviation (SD) of repetitive readings was less than 30% of the mean.
At higher concentrations, still easily achievable in vivo, arginine butyrate (0.5 mM) and dihydrocinnamic acid (greater than 0.5 mM) inhibited growth of this tumor cell line by approximately 50%. Therefore, these compounds are also useful as anti-tumor agents.

[7] = 1.0 mM to 2.0 mM, untreated cells 26%
[8] = 2.0 mM, 4 days, controls 26%, 22%

Structure (SMILES) | Degraded DNA [1, 7] [%] | Degraded DNA [1, 8] [%] | effect in DNA fragmentation assays [1] | system A transport of amino acids (3H-MAIB uptake) ([2]; listed as phenoxy acetic acid) | system A transport of amino acids (3H-MAIB uptake) ([2]; listed as phenoxyacetic acid) | induction of fetal globin mRNA in human cells [3] | Gamma/Alpha (fetal globin mRNA proportional to α-globin mRNA) ([3]; untreated 0.46) | Gamma Globin mRNA (increase ↑) ([3]; versus untreated) [% ↑] | erythroid cell growth and proliferation compared to untreated controls (FIG. 2) ([4]; 0.5 mM) | proliferation (dose response, FIG. 3) ([5]; up to 2.0 mM) | growth of K562 ([6]; 0.5 mM) | Degraded DNA ([1]; 0.5 mM, 4 days, controls 26%, 22%) [%] | Degraded DNA ([1]; 1.0 mM, 4 days, controls 26%, 22%) [%] | system A transport of amino acids (3H-MAIB uptake) [2] | erythroid cell growth and proliferation compared to untreated controls (FIG. 2) ([4]; 0.2 mM) | cell growth (dose response, FIG. 3) ([5]; concentrations above 0.2 mM) | growth of K562 ([6]; 0.2 mM)
O=C(O)COc1ccccc1 [PAA, Phenoxyacetic acid] | 20.6 | 20.6 | reduce DNA fragmentation | caused no significant inhibition and actually increased uptake of nutrients into cells | do not significantly alter | significantly increased | 0.70 | 24 | either had no effect or stimulated erythroid cell growth and proliferation | did not significantly inhibit proliferation | either did not inhibit, or slightly enhanced growth | – | – | – | – | – | –
CCCC(=O)O [AB, arginine butyrate] | 44 | 44 | decrease cell viability | – | – | significantly increased | – | – | inhibited proliferation | – | – | 32 | 34 | inhibited the neutral amino acid transport mechanism | inhibited proliferation | suppressed cell growth | either did not inhibit, or slightly enhanced growth
